The results in this text go back to patent US7148230B2, “Quinazoline derivatives” (AstraZeneca AB, priority 2003, dated 2006).

One series concerns the target T1, EGFR tyrosine kinase (Homo sapiens, UniProt P00533).
T1 construct: Recombinant intracellular fragments of EGFR, erbB2 and erbB4; made in house; host or cells: baculovirus/Sf21 insect cells (cleared lysate used)
Kind of series: Protein tyrosine kinase phosphorylation assay, Test (a), EGFR. The class given is biochemical. To be noted: ATP at Km concentration; read-out: IC50 (nM) Test (a) (Inhibition of EGFR tyrosine kinase protein phosphorylation). Here is the method:
(§1) This test measures the ability of a test compound to inhibit the phosphorylation of a tyrosine containing polypeptide substrate by an erbB tyrosine kinase enzyme.
(§2) Recombinant intracellular fragments of EGFR, erbB2 and erbB4 (accession numbers X00588, X03363 and L07868 respectively) were cloned and expressed in the baculovirus/Sf21 system. Lysates were prepared from these cells by treatment with ice-cold lysis buffer (20 mM N-2-hydroxyethylpiperizine-N′-2-ethanesulfonic acid (HEPES) pH7.5, 150 mM NaCl, 10% glycerol, 1% Triton X-100, 1.5 mM MgCl2, 1 mM ethylene glycol-bis(β-aminoethyl ether) N′,N′,N′,N′-tetraacetic acid (EGTA), plus protease inhibitors and then cleared by centrifugation.
(§3) Constitutive kinase activity of the recombinant protein was determined by its ability to phosphorylate a synthetic peptide (made up of a random co-polymer of Glutamic Acid, Alanine and Tyrosine in the ratio of 6:3:1). […]
(§4) The immobilised phospho-peptide product of the reaction was detected by immunological methods. […] After further washing, HRP activity in each well of the plate was measured colorimetrically using 22′-Azino-di-[3-ethylbenzthiazoline sulfonate (6)]diammonium salt crystals (ABTS™ from Roche) as a substrate.
(§5) Quantification of colour development and thus enzyme activity was achieved by the measurement of absorbance at 405 nm on a Molecular Devices ThermoMax microplate reader. […]

A further series deals with T2, erbB2 tyrosine kinase (Homo sapiens, UniProt P04626).
T2 construct: Recombinant intracellular fragments of EGFR, erbB2 and erbB4; made in house; host or cells: baculovirus/Sf21 insect cells (cleared lysate used)
T2 sequence (P04626 676-1255 limits assumed): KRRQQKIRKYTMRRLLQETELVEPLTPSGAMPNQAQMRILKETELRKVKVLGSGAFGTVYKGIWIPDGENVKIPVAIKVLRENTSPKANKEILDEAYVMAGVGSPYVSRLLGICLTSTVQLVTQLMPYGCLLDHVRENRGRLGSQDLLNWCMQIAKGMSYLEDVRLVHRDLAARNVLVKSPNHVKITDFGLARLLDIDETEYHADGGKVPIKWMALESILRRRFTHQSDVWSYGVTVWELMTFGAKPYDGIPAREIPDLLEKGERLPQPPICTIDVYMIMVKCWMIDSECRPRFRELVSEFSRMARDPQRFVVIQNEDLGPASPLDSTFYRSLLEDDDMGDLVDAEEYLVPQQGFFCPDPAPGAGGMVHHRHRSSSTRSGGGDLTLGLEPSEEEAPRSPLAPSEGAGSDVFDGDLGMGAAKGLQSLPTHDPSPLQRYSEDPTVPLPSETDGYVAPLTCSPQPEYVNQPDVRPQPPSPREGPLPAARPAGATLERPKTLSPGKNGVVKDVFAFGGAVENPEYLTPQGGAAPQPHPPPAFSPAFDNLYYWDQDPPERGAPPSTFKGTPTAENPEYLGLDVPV
Kind of series: Protein tyrosine kinase phosphorylation assay, Test (a), erbB2. The class given is biochemical. To be noted: ATP at Km concentration; read-out: IC50 (nM) Test (a) (Inhibition of erbB2 tyrosine kinase protein phosphorylation). The protocol: as §1, §2, §3, §4, §5

Usually IC50 stands for the concentration that inhibits the measured activity by half. In general, melting point refers to the temperature of the solid-liquid transition.

T1 sequence (P00533 669-1210 limits assumed): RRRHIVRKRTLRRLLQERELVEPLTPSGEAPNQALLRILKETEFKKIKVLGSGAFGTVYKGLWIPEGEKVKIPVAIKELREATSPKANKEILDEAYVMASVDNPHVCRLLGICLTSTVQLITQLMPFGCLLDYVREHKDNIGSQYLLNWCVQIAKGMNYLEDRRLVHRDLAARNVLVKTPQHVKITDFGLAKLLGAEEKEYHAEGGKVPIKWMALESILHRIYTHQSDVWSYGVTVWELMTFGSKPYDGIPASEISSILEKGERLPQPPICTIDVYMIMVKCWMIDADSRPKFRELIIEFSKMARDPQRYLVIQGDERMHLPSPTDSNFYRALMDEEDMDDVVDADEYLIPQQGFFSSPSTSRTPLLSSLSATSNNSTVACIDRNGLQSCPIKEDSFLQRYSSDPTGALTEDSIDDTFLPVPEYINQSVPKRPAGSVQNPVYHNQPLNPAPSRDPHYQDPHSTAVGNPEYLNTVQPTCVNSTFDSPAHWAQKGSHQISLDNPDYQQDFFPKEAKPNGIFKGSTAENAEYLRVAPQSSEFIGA

`COc1cc2ncnc(Nc3cccc(Cl)c3F)c2cc1OC1CCN(C(=O)CO)CC1` [Example 1, 4-(3-chloro-2-fluoroanilino)-6-[1-(hydroxyacetyl)piperidin-4-yloxy]-7-methoxyquinazoline] gave a melting point of 195.5 to 196.5 °C. For the same compound, the IC50 at EGFR tyrosine kinase is 3 nM. For the same compound, the half-inhibitory concentration (IC50) on erbB2 tyrosine kinase was determined as 59 nM.
